Laboratory results taken from BindingDB's records for PubMed 8391122 (Merck Sharp & Dohme Research Laboratories, 1993).

Legend:
[1] = target: T1, Gamma-aminobutyric acid receptor subunit alpha-3 (Homo sapiens, UniProt P34903)
T1 sequence (P34903 whole entry): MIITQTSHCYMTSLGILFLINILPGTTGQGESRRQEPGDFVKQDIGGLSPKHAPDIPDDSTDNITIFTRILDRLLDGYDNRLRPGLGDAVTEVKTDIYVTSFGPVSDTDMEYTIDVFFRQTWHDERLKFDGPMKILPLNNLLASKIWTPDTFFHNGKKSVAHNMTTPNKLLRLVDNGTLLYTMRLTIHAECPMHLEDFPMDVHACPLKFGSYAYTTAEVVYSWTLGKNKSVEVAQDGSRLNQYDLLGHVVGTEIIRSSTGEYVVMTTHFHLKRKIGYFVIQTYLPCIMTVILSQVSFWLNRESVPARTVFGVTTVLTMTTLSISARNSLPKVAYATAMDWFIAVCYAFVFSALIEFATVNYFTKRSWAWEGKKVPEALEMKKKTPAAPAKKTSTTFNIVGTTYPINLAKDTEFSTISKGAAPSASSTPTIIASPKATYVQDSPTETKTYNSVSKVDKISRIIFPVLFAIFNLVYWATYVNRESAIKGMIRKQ

[2] = target: T2, Gamma-aminobutyric acid receptor subunit alpha-5 (Homo sapiens, UniProt P31644)
T2 sequence (P31644 whole entry): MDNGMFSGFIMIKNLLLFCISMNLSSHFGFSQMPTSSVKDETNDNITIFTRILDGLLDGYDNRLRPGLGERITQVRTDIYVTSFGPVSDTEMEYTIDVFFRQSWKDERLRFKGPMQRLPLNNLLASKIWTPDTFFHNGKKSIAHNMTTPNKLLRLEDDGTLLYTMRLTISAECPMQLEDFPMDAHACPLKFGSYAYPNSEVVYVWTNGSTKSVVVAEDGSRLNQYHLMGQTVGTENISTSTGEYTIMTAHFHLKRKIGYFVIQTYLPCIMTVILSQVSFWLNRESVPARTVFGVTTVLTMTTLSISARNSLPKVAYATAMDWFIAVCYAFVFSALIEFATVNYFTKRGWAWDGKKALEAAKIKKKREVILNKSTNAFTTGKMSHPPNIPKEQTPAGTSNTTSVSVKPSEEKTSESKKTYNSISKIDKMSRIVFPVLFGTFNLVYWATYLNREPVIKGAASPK

[3] = target: T3, Gamma-aminobutyric acid receptor subunit alpha-2 (Homo sapiens, UniProt P47869)
T3 sequence (P47869 whole entry): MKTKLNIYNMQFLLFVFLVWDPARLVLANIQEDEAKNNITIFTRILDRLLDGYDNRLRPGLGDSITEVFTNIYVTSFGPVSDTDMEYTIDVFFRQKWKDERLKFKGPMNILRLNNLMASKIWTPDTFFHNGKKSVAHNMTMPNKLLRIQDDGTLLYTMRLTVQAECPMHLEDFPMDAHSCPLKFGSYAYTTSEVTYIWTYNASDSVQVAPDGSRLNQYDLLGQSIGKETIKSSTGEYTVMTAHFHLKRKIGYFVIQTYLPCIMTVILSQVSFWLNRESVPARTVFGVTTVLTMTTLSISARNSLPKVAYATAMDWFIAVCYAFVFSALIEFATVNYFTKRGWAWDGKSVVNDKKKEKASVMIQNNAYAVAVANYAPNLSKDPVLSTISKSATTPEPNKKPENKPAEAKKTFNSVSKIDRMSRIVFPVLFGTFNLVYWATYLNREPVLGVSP

[4] = target: T4, Gamma-aminobutyric acid receptor subunit alpha-1 (Homo sapiens, UniProt P14867)
T4 sequence (P14867 whole entry): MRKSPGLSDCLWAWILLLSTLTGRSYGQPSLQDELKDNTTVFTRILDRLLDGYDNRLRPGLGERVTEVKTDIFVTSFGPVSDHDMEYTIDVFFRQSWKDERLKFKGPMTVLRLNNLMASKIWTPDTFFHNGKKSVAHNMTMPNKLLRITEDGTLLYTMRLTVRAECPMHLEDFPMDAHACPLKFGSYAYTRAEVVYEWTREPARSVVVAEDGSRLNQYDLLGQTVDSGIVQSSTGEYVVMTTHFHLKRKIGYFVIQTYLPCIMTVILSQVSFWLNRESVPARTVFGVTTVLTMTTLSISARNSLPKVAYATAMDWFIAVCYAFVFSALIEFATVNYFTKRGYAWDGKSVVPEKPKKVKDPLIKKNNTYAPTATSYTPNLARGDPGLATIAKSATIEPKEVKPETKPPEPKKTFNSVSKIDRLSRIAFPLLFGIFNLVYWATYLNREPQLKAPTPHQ

CCOC(=O)c1ncn2c1CN(C)C(=O)c1cc(N=[N+]=[N-])ccc1-2 [RO-154513]
Ki [1]: 7.8 nM | Ki [2]: 0.7 nM | Ki [3]: 10.4 nM | Ki [4]: 10 nM

Cc1nnc2n1-c1ccc(Cl)cc1C(c1ccccc1Cl)=NC2 [Halcion]
Ki [1]: 3 nM

COCc1c(C(=O)OC(C)C)ncc2[nH]c3ccc(OCc4ccccc4)cc3c12
Ki [1]: 7.1 nM | Ki [2]: 8.4 nM | Ki [3]: 4.4 nM

CC(C)c1nc(-c2ncn3c2CN(C)C(=O)c2c(Cl)cccc2-3)no1 [FG 8205]
Ki [1]: 6.4 nM | Ki [2]: 6.4 nM | Ki [3]: 3.7 nM | Ki [4]: 2.3 nM

Cc1ccc(-c2nc3ccc(C)cn3c2CC(=O)N(C)C)cc1 [Ambien]
Ki [2]: > 10000 nM

CC(C)(C)OC(=O)c1ncn2c1C1CCCN1C(=O)c1c(Br)cccc1-2 (stereo not given) [8-Bromo-7-oxo-3b,4,5,6-tetrahydro-7H-2,6a,11b-triaza-benzo[g]cyclopenta[e]azulene-3-carboxylic acid tert-butyl ester]
Ki [1]: 1.3 nM | Ki [2]: 2.4 nM | Ki [3]: 1.2 nM | Ki [4]: 1.2 nM

COC(=O)c1cc2c(cn1)[nH]c1ccccc12
Ki [1]: 9.2 nM | Ki [2]: 76.4 nM | Ki [3]: 6.5 nM | Ki [4]: 2.2 nM

Cc1nnc2ccc(-c3cccc(C(F)(F)F)c3)nn12
Ki [1]: 3140 nM | Ki [2]: 1150 nM | Ki [3]: 2900 nM | Ki [4]: 290 nM
